Data taken from ChEMBL document CHEMBL1201862, “PubChem BioAssay data set” (2004).
Where a name gives a salt, the structure may show the parent alone. Activity calls are given as the source filed them.

Experiments:
[1] = IGROV1 cell killing – plate reader, dry powder samples, PAX8 inhibitor project, dose response (AID 743043); type: functional, cell-based; details: IGROV-1
[2] = toxicity to human hepatoma HepG2 cells – cell-based, cherry-picked samples, cytotoxicity control, dose response (AID 1159577); type: functional
[3] = P. falciparum Dd2 growth inhibitors, dose response, SYBR Green, cherry-picked samples (AID 1159567); type: functional, cell-based
Paired box protein Pax-8 = Paired box protein Pax-8 (Homo sapiens, UniProt Q06710); experiment: PAX8 transcriptional activity inhibition in RMG-I – RMG-I cells, luciferase, cherry-pick, dose response (AID 687027); type: functional, cell-based;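 further: luciferase reporter driven by Pax8 target thyroperoxidase promoter measured by SteadyGlo luminescence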
Sequence of Paired box protein Pax-8 (Q06710 whole entry): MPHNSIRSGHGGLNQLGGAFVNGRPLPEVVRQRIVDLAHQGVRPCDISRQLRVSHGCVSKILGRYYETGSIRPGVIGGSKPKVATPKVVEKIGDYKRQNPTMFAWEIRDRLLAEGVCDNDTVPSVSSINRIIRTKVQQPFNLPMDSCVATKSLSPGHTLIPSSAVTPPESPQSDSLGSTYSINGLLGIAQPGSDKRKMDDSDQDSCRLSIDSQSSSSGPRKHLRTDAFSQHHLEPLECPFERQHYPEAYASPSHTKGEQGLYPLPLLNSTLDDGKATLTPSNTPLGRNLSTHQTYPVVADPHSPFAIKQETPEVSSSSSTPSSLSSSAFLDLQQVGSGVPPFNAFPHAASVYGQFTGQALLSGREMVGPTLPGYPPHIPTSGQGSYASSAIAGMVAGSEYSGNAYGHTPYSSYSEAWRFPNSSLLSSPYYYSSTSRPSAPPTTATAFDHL

[4] = OVCAR-3 cell viability loss – plate reader, dry powder samples, PAX8 inhibitor project, dose response (AID 743044); type: functional, cell-based
[5] = toxicity toward immortalized ovarian surface epithelium – cell-based, plate reader, dry powder samples, cytotoxicity control for PAX8 inhibitor project, dose response (AID 743045); type: functional
[6] = A2780 cell killing – plate reader, dry powder samples, cytotoxicity control, dose response (AID 743046); type: functional, cell-based
[7] = OVCAR8 cell viability loss – plate reader, dry powder samples, PAX8 project, dose response (AID 743197); type: functional, cell-based; details: OVCAR-8
[8] = viability loss in HEK293 cells – cell-based, plate reader, cherry-picked samples, cytotoxicity control, dose response (AID 743446); type: functional
[9] = blockers of bursicon-stimulated LGR2 cAMP reporter – cell-based, HEK293, CRE-luciferase reporter, cherry pick, set 2, dose response (AID 743343); type: functional;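 further: transfected cells were stimulated with diluted bursicon conditioned medium after compound addition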
[10] = blockade of melanocortin 4 receptor signaling – cell-based, plate reader, cherry pick, counter-screen for LGR2 antagonist project, dose response (AID 743444); type: functional;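 further: transfected HEK 293 cells stimulated with alpha-MSH peptide; potency of inhibitors of the alpha-MSH evoked signal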
[11] = toxicity toward HepG2 liver cells – cell-based, plate reader, cherry-pick, antagonist series, cytotoxicity control, dose response (AID 743416); type: functional
HEK293 = experiment: EBV LMP1 TES2 canonical NF-kB signalling blockers – cell-based, HEK293, luciferase, cherry-pick, dose response (AID 588343); type: functional; details: Homo sapiens
[12] = system: Streptococcus sp. 'group A'; experiment: Streptococcus pyogenes SK(-)GAS viability under kanamycin – luminescence, BacTiterGlo, confirmation, counter-screen for streptokinase expression inhibitor project, dose response (AID 1900); type: functional, organism-based
[13] = IC50 of Artemis nuclease activity blockers – biochemical, fluorescence intensity, dose response (AID 720701); type: functional;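 further: Artemis endonuclease enzyme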
Streptococcus = experiment: GAS UMAA2166 growth inhibition – luminescence, BacTiterGlo, counter-screen for streptokinase expression inhibitor project, dose response (AID 1915); type: functional, organism-based;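 further: potency for reduction of bacterial viability or growth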
[14] = Counterscreen for activators of the function of SWI/SNF related, matrix associated, actin dependent regulator of chromatin, subfamily a, member 2 (SMARCA2, BRM): Luminescence-based cell-based high throughput dose response assay to identify non-selective compounds using the VP16 reporter assay.; type: functional
[15] = target: SWI/SNF-related matrix-associated actin-dependent regulator of chromatin subfamily A member 2 (Homo sapiens, UniProt P51531); experiment: Luminescence-based cell-based high throughput dose response assay to identify activators of the function of SWI/SNF related, matrix associated, actin dependent regulator of chromatin, subfamily a, member 2 (SMARCA2, BRM).; type: functional
Sequence of SWI/SNF-related matrix-associated actin-dependent regulator of chromatin subfamily A member 2 (P51531 whole entry): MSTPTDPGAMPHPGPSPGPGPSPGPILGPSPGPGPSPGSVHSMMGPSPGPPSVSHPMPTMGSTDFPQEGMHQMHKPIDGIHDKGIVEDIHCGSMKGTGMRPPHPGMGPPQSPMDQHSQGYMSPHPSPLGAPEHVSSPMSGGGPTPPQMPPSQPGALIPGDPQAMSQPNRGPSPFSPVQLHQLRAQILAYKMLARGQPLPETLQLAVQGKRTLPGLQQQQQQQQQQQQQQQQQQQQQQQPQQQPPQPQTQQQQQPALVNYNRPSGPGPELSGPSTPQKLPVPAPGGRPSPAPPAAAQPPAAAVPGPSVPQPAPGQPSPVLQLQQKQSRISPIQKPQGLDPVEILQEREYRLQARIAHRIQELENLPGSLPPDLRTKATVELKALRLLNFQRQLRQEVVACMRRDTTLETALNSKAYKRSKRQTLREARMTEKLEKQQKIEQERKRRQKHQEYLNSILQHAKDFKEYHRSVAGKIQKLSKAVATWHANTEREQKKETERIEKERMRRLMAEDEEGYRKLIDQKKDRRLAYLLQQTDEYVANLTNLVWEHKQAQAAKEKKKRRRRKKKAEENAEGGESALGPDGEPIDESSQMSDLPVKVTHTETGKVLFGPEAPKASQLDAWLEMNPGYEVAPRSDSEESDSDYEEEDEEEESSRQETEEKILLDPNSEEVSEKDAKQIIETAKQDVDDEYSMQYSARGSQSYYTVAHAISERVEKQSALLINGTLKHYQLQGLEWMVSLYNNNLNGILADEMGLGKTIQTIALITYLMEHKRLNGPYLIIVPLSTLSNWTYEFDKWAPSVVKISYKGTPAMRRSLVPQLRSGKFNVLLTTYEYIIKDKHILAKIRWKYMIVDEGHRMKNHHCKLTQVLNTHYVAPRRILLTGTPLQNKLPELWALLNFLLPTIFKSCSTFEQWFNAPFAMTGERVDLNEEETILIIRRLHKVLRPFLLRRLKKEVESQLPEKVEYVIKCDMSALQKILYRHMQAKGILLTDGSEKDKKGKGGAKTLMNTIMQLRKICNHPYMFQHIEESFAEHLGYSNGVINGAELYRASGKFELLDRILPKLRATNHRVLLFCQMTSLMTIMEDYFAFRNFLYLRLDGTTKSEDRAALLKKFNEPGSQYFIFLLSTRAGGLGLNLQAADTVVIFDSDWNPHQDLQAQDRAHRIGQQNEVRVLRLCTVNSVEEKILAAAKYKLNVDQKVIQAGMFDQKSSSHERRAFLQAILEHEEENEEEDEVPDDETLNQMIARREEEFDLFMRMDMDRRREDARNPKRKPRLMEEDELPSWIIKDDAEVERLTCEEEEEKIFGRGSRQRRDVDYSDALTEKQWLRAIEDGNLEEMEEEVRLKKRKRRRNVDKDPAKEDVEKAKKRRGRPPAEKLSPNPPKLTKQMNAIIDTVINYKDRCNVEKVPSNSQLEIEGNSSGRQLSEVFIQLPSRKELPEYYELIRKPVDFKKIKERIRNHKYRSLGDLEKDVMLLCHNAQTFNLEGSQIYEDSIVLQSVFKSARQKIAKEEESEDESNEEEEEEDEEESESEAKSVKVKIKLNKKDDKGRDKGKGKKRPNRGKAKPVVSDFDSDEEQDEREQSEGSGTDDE

[16] = IC50 of insulin release inhibition, rat insulinoma INS-1E line, 5 mM glucose, cell-based (AID 1117331); type: functional
cells = type: functional, cell-based; details: INS-1E
[17] = viability loss in HeLa cells – cytotoxicity control for MgcRacGAP inhibitor project, dose response (AID 624300); type: functional
[18] = target: T1, Rac GTPase-activating protein 1 (Homo sapiens, UniProt Q9H0H5); experiment: blockers of MgcRacGAP-driven Rac1 GTP hydrolysis – biochemical, ADP Hunter fluorescence, primary and confirmatory, confirmation (AID 624330); type: functional
T1 sequence (Q9H0H5 whole entry): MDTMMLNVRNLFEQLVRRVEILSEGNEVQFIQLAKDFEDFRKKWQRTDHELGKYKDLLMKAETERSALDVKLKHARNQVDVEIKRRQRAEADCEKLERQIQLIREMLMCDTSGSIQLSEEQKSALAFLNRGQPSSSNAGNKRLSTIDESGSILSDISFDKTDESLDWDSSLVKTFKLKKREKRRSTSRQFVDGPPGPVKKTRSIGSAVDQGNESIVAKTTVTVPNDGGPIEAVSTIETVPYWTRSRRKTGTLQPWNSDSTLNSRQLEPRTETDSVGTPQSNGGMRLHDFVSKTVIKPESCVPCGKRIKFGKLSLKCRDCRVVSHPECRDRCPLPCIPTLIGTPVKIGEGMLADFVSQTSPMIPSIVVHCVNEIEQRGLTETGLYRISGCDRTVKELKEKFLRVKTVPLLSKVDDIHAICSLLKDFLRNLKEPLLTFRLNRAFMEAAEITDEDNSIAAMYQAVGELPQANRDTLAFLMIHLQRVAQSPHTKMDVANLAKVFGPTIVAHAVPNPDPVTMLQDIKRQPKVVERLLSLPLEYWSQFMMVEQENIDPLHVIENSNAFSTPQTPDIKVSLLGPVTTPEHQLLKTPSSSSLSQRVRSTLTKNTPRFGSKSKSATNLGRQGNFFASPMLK

[19] = target: T2, Low molecular weight phosphotyrosine protein phosphatase (Homo sapiens, UniProt P24666); type: functional; details: read-out: IC50_Mean
T2 sequence (P24666 whole entry): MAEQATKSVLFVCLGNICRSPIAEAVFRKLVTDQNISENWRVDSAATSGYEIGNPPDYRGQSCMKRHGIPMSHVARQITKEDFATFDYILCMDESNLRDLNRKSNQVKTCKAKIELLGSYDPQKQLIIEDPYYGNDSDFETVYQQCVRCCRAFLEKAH

[20] = target: T2, Low molecular weight phosphotyrosine protein phosphatase; type: functional; details: read-out: IC50_Mean; remark: listed apart in the source
[21] = target: T3, Fructose-bisphosphate aldolase (Mycobacterium tuberculosis, UniProt P9WQA3); experiment: Fluorescence-based biochemical high throughput dose response assay for inhibitors of the fructose-bisphosphate aldolase (FBA) of M. tuberculosis.; type: functional
T3 sequence (P9WQA3 whole entry): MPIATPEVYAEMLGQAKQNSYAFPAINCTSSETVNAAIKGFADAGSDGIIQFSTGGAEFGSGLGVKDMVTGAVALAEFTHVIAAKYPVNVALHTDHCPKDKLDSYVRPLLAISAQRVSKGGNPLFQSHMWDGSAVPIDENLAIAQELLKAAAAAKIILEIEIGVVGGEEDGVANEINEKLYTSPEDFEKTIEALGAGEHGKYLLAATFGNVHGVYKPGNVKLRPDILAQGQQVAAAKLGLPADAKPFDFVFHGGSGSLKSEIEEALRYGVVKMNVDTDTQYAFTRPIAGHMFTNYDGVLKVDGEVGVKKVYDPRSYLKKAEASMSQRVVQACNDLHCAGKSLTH

[22] = NIH-3T3 fibroblast cytotoxicity, dose response, cytotoxicity control, cell-based, fluorescence, Alamar Blue, secondary assay (AID 2327); type: functional;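 further: NIH-3T3 mouse fibroblasts cultured with fluconazole at 8 µg/mL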
[23] = fluconazole-exposed Candida albicans growth modulators – fluorescence, retest, confirmation (AID 2467); type: functional, cell-based
fMet-Leu-Phe receptor = target: T4, fMet-Leu-Phe receptor (Homo sapiens, UniProt P21462); experiment: formyl peptide receptor binders – dose response (AID 519); type: functional
T4 sequence (P21462 whole entry): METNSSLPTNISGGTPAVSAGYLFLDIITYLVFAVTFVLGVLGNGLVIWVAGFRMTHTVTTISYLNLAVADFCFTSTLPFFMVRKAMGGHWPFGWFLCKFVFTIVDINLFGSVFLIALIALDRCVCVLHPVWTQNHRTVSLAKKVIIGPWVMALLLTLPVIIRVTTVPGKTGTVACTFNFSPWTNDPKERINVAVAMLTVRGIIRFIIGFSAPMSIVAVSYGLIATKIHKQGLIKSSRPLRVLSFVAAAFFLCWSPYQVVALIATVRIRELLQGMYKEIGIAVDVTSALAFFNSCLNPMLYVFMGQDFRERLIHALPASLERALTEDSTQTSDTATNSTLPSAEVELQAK

With `O=C(Nc1ccc(F)cc1)N1CCCCN2[C@@H](CO)[C@@H](c3ccc(C#Cc4ccccc4)cc3)[C@@H]2C1` the AC50 [1] was 21 µM (active), the AC50 [2] was 7.97 µM (active) and the AC50 [3] was 2.61 µM (active). The AC50 (Paired box protein Pax-8) was 18.7 µM (active), the AC50 [4] was 19.2 µM (active) and the AC50 [5] was 55.1 µM (active).
For `C[C@@H]1CCCCO[C@H](CN(C)C(=O)C2CCCCC2)[C@H](C)CN([C@@H](C)CO)C(=O)c2cc(NS(=O)(=O)c3ccc(Cl)cc3)ccc2O1`, the AC50 [6] was 43.4 µM (active), the AC50 (Paired box protein Pax-8) was 10.8 µM (active) and the AC50 [4] was 45.3 µM (active). For the same molecule, the AC50 [7] was 56.9 µM (active).
In the case of `COc1ccc(-c2[nH]ncc2-c2ccc3c(c2)OCCO3)c(O)c1`, the AC50 [8] is reported as > 52 µM (inactive), the AC50 [9] is reported as 2.97 µM (active) and the AC50 [10] is reported as 0.723 µM (active). For the same molecule, the AC50 [11] was > 52 µM (inactive) and the AC50 (HEK293) was 1.78 µM (active).
For `COCC(=O)N1CCC2(CC1)CN(Cc1ccccc1F)[C@H](CO)c1[nH]c3cc(OC)ccc3c12`, the AC50 [2] was > 39 µM (inactive) and the AC50 [3] was 7.02 µM (active).
In the case of `CC(C)Cn1c2c(c(O)c(C(=O)Nc3ncccc3O)c1=O)CCCC2`, the EC50 [12] is reported as 2.97 µM (active), the IC50 [13] is reported as 16.3 µM (active) and the EC50 (Streptococcus) is reported as 3.34 µM (active).
In the case of `COc1ccccc1/C=C/C(=O)OCC(=O)Nc1ccc(Cl)cn1`, the EC50 [14] is reported as > 91.1 µM (inactive) and the EC50 [15] is reported as > 91.1 µM (inactive).
For `CCCCN1CCCC[C@H]1C(=O)Nc1c(C)cccc1C` [LEVOBUPIVACAINE HYDROCHLORIDE], the IC50 [16] was 27.2 µM (inactive) and the IC50 (cells) was > 33.3 µM (inactive).
In the case of `Cc1cc(C)c(OCCCCNCc2ccccc2)c(Cl)c1`, the CC50 [17] is reported as 69.7 µM (active) and the IC50 [18] is reported as 91.9 µM (active).
In the case of `Cc1c(-c2ccccc2)c(-c2ccc(OCCN(C)C)cc2)n2ccccc12`, the IC50 [19] is reported as 31.3 µM (inactive) and the IC50 [20] is reported as 4.82 µM (active).
For `Nc1ncc2c(n1)-c1ccccc1CC2`, the IC50 [21] was 1.53 µM (active).
For `COCCN1C(=O)C(O)=C(C(=O)c2ccco2)C1c1cccc(Oc2ccccc2)c1` (stereo not drawn), the EC50 [22] was > 150 µM (inactive), the EC50 [23] was 4.35 µM (active) and the Ki (fMet-Leu-Phe receptor) was 56 µM (inactive).
In the case of `O=[N+]([O-])c1ccccc1/C=C/C=N/n1c(S)nnc1-c1ccc(Cl)cc1`, the IC50 [13] is reported as > 20 µM (inactive).
